Measurements published in patent US5639765A, “Guanidinoalkyl glycine β-amino acids useful for inhibiting bone loss” (G. D. Searle & Co., priority 1995, dated 1997).
Counter-ions that a name gives are not always drawn.

Key:
[1] = molecular target: T1, Human vitronectin receptor (αv β3) (Homo sapiens, UniProt P05106+P06756); experiment: Solid Phase Receptor Assay, purified αv β3 (vitronectin receptor) competition with biotinylated vitronectin; format: binding; conditions: 1 nM biotinylated vitronectin, 2 h competition, room temperature, R = H, read-out: VnR/IC50
T1 construct: purified from human placenta; from tissue; host or cells: human placenta
Procedure: Human vitronectin receptor(αv β3) was purified from human placenta as previously described [Pytela et al., Methods in Enzymology, 144:475-489 (1987)]. Human vitronectin was purified from fresh frozen plasma as previously described [Yatohgo et al., Cell Structure and Function, 13:281-292 (1988)]. Biotinylated human vitronectin was prepared by coupling NHS-biotin from Pierce Chemical Company (Rockford, Ill.) to purified vitronectin as previously described [Charo et al., J. Biol. Chem., 266(3):1415-1421 (1991)]. Assay buffer, OPD substrate tablets, and RIA grade BSA were obtained from Sigma (St. Louis, Mo.). Anti-biotin antibody was obtained from Calbiochem (La Jolla, Calif.). GRGDSP peptide was purchased from Bachem (Torrance, Calif.). Linbro microtiter plates were obtained from Flow Labs (McLean, Va.). ADP reagent was obtained from Sigma (St. Louis, Mo.).
This assay was essentially the same as previously reported [Niiya et al., Blood, 70:475-483 (1987)]. The purified human vitronectin receptor (αv β3) was diluted from stock solutions to 1.0 μg/mL in Tris-buffered saline containing 1.0 mM Ca^++, Mg^++, and Mn^++, pH 7.4 (TBS^+++). The diluted receptor was immediately transferred to Linbro microtiter plates at 100 μL/well (100 ng receptor/well). The plates were sealed and incubated overnight at 4° C. to allow the receptor to bind to the wells. All remaining steps were at room temperature. The assay plates were emptied and 200 μL of 1% RIA grade BSA in TBS^+++ (TBS^+++ /BSA) were added to block exposed plastic surfaces. Following a 2 hour incubation, the assay plates were washed with TBS^+++ using a 96 well plate washer. Logarithmic serial dilution of the test compound and controls were made starting at a stock concentration of 2 mM and using 2 nM biotinylated vitronectin in TBS^+++ /BSA as the diluent. This premixing of labeled ligand with test (or control) ligand, and subsequent transfer of 50 μL aliquots to the assay plate was carried out with a CETUS Propette robot; the final concentration of the labeled ligand was 1 nM and the highest concentration of test compound was 1.0×10^-4 M. The competition occurred for two hours after which all wells were washed with a plate washer as before. Affinity purified horseradish peroxidase labeled goat anti-biotin antibody was diluted 1:3000 in TBS^+++ /BSA and 125 μL were added to each well. After 30 minutes, the plates were washed and incubated with OPD/H2 O2 substrate in 100 mM/L Citrate buffer, pH 5.0. The plate was read with a microtiter plate reader at a wavelength of 450 nm and when the maximum-binding control wells reached an absorbance of about 1.0, the final A450 were recorded for analysis. The data were analyzed using a macro written for use with the EXCEL™ spreadsheet program. The mean, standard deviation, and % CV were determined for duplicate concentrations. The mean A450 values were normalized to the mean of four maximum-binding controls (no competitor added)(B-MAX). The normalized values were subjected to a four parameter curve fit algorithm [Rodbard et al., Int. Atomic Energy.Agency, Vienna, pp 469 (1977)], plotted on a semi-log scale, and the computed IC50 and corresponding R^2 was reported. GRGDSP, a peptide fragment of fibrinogen, was included on each plate as a positive control.

osteoclastic activity [2] = conditions: cited from earlier work
osteoclastic activity [3] = conditions: cited from earlier work; remark: listed apart in the source

Row | Compound | IC50 [1] [nM] | inhibition of osteoclastic activity in vitro (osteoclastic activity [2]) | inhibition of osteoclastic activity in vivo (osteoclastic activity [3])
1 | echistatin | – | potent inhibitors | potent inhibitors
2 | N=C(N)NCCCC(=O)NCC(=O)NC(CC(=O)O)c1cccnc1 (racemic) [Example 3, (±) β-[[2-[[4-[(aminoiminomethyl)amino]-1-oxobutyl]amino]-1-oxoethyl]amino]-3-pyridinepropanoic acid, bistrifluoroacetate salt] | 23.1 | – | –
3 | N=C(N)NCCCCC(=O)NCC(=O)NC(CC(=O)O)c1cccnc1 (stereo not drawn) [Example 1, β-[[2-[[5-[(aminoiminomethyl]amino]-1-oxopentyl]amino]-1-oxoethyl]amino]-3-pyridinepropanoic acid, bistrifluoroacetate salt] | 9.4 | – | –

Further lines, with some results ahead:

Row | IC50 [1] [nM] | Compound | inhibition of osteoclastic activity in vitro (osteoclastic activity [2]) | inhibition of osteoclastic activity in vivo (osteoclastic activity [3])
4 | 706 | N=C(N)NCCCC(=O)NCCC(=O)NC(CC(=O)O)c1cccnc1 (racemic) [Example 5, (±) β-[[3-[[4-[(aminoiminomethyl)amino]-1-oxobutyl]amino]-1-oxopropyl]amino]-3-pyridinepropanoic acid, bistrifluoroacetate salt] | – | –
5 | 460 | N=C(N)NCCCCCC(=O)NCC(=O)NC(CC(=O)O)c1cccnc1 (racemic) [Example 4, (±) β-[[2-[[6-[(aminoiminomethyl)amino]-1-oxohexyl]amino]-1-oxoethyl]amino]-3-pyridinepropanoic acid, bistrifluoroacetate salt] | – | –
6 | 31.6 | N=C(N)NCC(CC(=O)NCC(=O)NC(CC(=O)O)c1cccnc1)c1ccccc1 (racemic) [Example 6, (±) β-[[2-[[4-[(aminoiminomethyl, amino]-1-oxo-3-phenylbutyl]amino]-1-oxoethyl]amino]-3-pyridinepropanoic acid, bistrifluoroacetate salt] | – | –
